Results taken from patent US8586588B2, “Aryl pyridazinone derivatives and their use as H3 receptor ligands” (Cephalon, Inc., priority 2006, dated 2013).
Structures can show the parent of a compound that is named as a salt.

Assays:
[1] = target: T1, human H3 receptor (Homo sapiens, UniProt Q9Y5N1); assay: Human H3 radioligand binding ([3H]-N-alpha-methylhistamine, CHO cell membranes, SPA); conditions: Table B, binding constant as letter class
T1 construct: expressed in transfected cells
Procedure, shortened: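 CHO cell membranes expressing human H3 (10 μg protein/well) incubated 4 h at room temperature, in the dark, with ~1 nM [3H]-N-alpha-methylhistamine, compounds (0.01 nM-30 μM) and SPA beads in 50 mM Tris HCl pH 7.4, 5 mM MgCl2, 0.1% BSA. Non-specific binding defined with 10 μM clobenpropit.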

[2] = target: T2, rat histamine H3 receptor (Rattus norvegicus, UniProt Q9QYN8); assay: Rat H3 radioligand binding ([3H]-N-alpha-methylhistamine, CHO-A3 cell membranes, SPA); conditions: Table B, binding constant as letter class; read-out: rat H3 Ki
T2 construct: encoding the entire 445-amino-acid rat histamine H3 receptor; expressed in transfected cells
T2 sequence (Q9QYN8 whole entry): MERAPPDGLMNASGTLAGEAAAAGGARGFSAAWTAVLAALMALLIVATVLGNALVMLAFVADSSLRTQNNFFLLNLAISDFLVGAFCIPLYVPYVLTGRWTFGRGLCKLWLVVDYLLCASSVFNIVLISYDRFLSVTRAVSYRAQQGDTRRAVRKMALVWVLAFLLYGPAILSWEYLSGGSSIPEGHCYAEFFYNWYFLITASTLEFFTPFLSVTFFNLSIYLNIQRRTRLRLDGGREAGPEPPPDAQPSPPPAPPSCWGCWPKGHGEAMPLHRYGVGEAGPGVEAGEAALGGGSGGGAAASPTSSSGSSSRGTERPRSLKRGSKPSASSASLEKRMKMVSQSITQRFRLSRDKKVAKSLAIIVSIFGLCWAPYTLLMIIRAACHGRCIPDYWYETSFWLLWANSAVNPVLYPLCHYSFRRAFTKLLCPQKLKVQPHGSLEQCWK
Procedure, shortened: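 Membranes from CHO-A3 cells stably expressing rat H3 (10 μg protein) incubated 4 h at room temperature in 50 mM Tris-HCl pH 7.4, 5 mM MgCl2, 0.1% BSA with ~1 nM [3H]-N-alpha-methylhistamine and compound (0.01 nM-30 μM). Bound radioligand read by scintillation proximity; nonspecific binding with 10 μM clobenpropit.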

T1 sequence (Q9Y5N1 whole entry): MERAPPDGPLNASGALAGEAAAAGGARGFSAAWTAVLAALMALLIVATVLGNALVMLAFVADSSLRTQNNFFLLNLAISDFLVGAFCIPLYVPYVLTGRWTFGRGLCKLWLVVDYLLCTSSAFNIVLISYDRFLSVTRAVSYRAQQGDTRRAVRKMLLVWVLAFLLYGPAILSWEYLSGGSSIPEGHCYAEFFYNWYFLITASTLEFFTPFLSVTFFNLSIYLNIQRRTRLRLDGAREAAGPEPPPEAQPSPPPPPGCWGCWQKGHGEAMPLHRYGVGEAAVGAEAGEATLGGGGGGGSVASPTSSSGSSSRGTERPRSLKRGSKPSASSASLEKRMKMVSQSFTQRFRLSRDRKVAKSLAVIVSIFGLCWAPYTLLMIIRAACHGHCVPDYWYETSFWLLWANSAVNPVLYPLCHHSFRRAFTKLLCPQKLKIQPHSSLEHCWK

SMILES	melting point	Ki [1]	Ki [2]
C[C@@H]1CCCN1CCCOc1ccc(-c2ccc(=O)n(C)n2)cc1 (as salt: HCl) [Example 1, 2-Methyl-6-{4-[3-((R)-2-methyl-pyrrolidin-1-yl)-propoxy]-phenyl}-2H-pyridazin-3-one]	183 to 185 °C	–	–
Cn1nc(-c2ccc(OCCCN3CCCCC3)cc2)ccc1=O (as salt: HCl) [Example 2, 2-Methyl-6-[4-(3-piperidin-1-yl-propoxy)-phenyl]-2H-pyridazin-3-one]	200 to 201 °C	–	–
CC(C)n1nc(-c2ccc(OCCCN3CCCCC3)cc2)ccc1=O (as salt: HCl) [Example 3, 2-Isopropy1-6-[4-(3-piperidin-1-yl-propoxy)-pheny1]-2H-pyridazin-3-one]	118 to 122 °C	–	–
C[C@@H]1CCCN1CCCOc1ccc(-c2ccc(=O)n(C)n2)cc1F (as salt: HCl) [Example 7, 6-{3-Fluoro-4-[3-((R)-2-methyl-pyrrolidin-1-yl)-propoxy]-phenyl}-2-methyl-2H-pyridazin-3-one]	140 to 142 °C	–	–
O=c1ccc(-c2ccc(OCCCN3CCCCC3)c(F)c2)nn1-c1ccccc1 (as salt: HCl) [Example 10, 6-[3-Fluoro-4-(3-piperidin-1-yl-propoxy)-phenyl]-2-phenyl-2H-pyridazin-3-one]	230 to 232 °C	–	–
C[C@@H]1CCCN1CCCOc1ccc(-c2n[nH]c(=O)c3c2CCC3)cc1 (as salt: HCl) [Example 12, 4-{4-[3-((R)-2-Methyl-pyrrolidin-1-yl)-propoxy]-phenyl}-2,5,6,7-tetrahydro-cyclopenta[d]pyridazin-1-one]	147 °C	–	–
C[C@H](COc1ccc(-c2ccc(=O)n(C)n2)cc1)CN1CCC[C@H]1C (as salt: HCl) [Example 13, 2-Methyl-6-{4-[(S)-2-methyl-3-((R)-2-methyl-pyrrolidin-1-yl)-propoxy]-phenyl}-2H-pyridazin-3-one]	188 to 190 °C	–	–
Cn1nc(-c2ccc(OCCCN3CCC[C@H]3CO)cc2)ccc1=O (as salt: HCl) [Example 14, 6-{4-[3-((S)-2-Hydroxymethyl-pyrrolidin-1-yl)-propoxy]-phenyl}-2-methyl-2H-pyridazin-3-one]	169 °C	–	–
Cn1nc(-c2ccc(OCCCN3CCC[C@@H]3CO)cc2)ccc1=O (as salt: HCl) [Example 15, 6-{4-[3-((R)-2-Hydroxymethyl-pyrrolidin-1-yl)-propoxy]-phenyl}-2-methyl-2H-pyridazin-3-one]	166 to 167 °C	–	–
C[C@@H]1CCCN1CCCOc1ccc(C2=NN(Cc3ccccc3)C(=O)CC2)cc1 (as salt: HCl) [Example 17, 2-Benzyl-6-{4-[3-((R)-2-methyl-pyrrolidin-1-yl)-propoxy]-phenyl}-4,5-dihydro-2H-pyridazin-3-one]	56 to 58 °C	–	–
C[C@@H]1CCCN1CCCOc1ccc(-c2ccc(=O)n(Cc3ccccc3)n2)cc1 (as salt: HCl) [Example 18, 2-Benzyl-6-{4-[3-((R)-2-methyl-pyrrolidin-1-yl)-propoxy]-phenyl}-2H-pyridazin-3-one]	228 to 230 °C	–	–
C[C@@H]1CCCN1CCCOc1ccc(C2=NN(c3ccccc3)C(=O)CC2)cc1 (as salt: HCl) [Example 19]	213 to 215 °C	–	–
C[C@@H]1CCCN1CCCOc1ccc(-c2ccc(=O)n(-c3ccccc3)n2)cc1 (as salt: HCl) [Example 20, 6-{4-[3-((R)-2-Methyl-pyrrolidin-1-yl)-propoxy]-phenyl}-2-phenyl-2H-pyridazin-3-one]	82 to 86 °C	–	–
CC1CCC(C)N1CCCOc1ccc(-c2nn(C(C)C)c(=O)c3ccsc23)cc1 (stereo not drawn) (as salt: HCl) [Example 23, 7-{4-[3-(2,5-Dimethyl-pyrrolidin-1-yl)-propoxy]-phenyl}-5-isopropyl-5H-thieno[2,3-d]pyridazin-4-one]	158 to 159 °C	–	–
CC(C)n1nc(-c2ccc(OCCCN3CCCCC3)cc2)c2sccc2c1=O (as salt: HCl) [Example 24, 5-Isopropyl-7-[4-(3-piperidin-1-yl-propoxy)-phenyl]-5H-thieno[2,3-d]pyridazin-4-one]	195 to 196 °C	–	–
CC(C)n1nc(-c2ccc(OCCCN3CCCC(C)(C)C3)cc2)c2sccc2c1=O (as salt: HCl) [Example 25, 7-{4-[3-(3,3-Dimethyl-piperidin-1-yl)-propoxy]-phenyl}-5-isopropyl-5H-thieno[2,3-d]pyridazin-4-one]	100 to 102 °C	–	–
COC[C@@H]1CCCN1CCCOc1ccc(-c2nn(C(C)C)c(=O)c3ccsc23)cc1 (as salt: HCl) [Example 26, 5-Isopropyl-7-{4-[3-((S)-2-methoxymethyl-pyrrolidin-1-yl)propoxy]-phenyl}-5H-thieno[2,3-d]pyridazin-4-one]	83 °C (dec.)	–	–

SMILES	melting point	Ki [1]	Ki [2]
COCn1ncc(-c2ccc(OCCCN3CCC[C@H]3C)cc2C)cc1=O [Example 230, 2-Methoxymethyl-5-{2-methyl-4-[3-((R)-2-methyl-pyrrolidin-1-yl)-propoxyl]-phenyl}-2H-pyridazin-3-one]	–	0.1 to 100 nM	0.1 to 100 nM
Cc1cc(OCCCN2CCC[C@H]2C)ccc1-c1cn[nH]c(=O)c1 [Example 231, 5-{2-methyl-4-[3-((R)-2-methyl-pyrrolidin-1-yl)-propoxyl]-phenyl}-2H-pyridazin-3-one]	–	0.1 to 100 nM	0.1 to 100 nM
COCn1ncc(-c2ccc(OCCCN3CCCCC3)cc2C)cc1=O [Example 232, 2-Methoxymethyl-5-[2-methyl-4-(3-piperidin-1-yl-propoxy)-phenyl]-2H-pyridazin-3-one]	–	0.1 to 100 nM	0.1 to 100 nM
COCn1ncc(-c2ccc(OC3CCN(C4CCC4)CC3)cc2C)cc1=O [Example 234, 5-[4-(1-Cyclobutyl-piperidin-4-yloxy)-2-methyl-phenyl]-2-methoxymethyl-2H-pyridazin-3-one]	–	0.1 to 100 nM	0.1 to 100 nM
COCn1ncc(-c2ccc(OCCCN3CCC[C@H]3C)cc2)c(OC)c1=O [Example 235, 4-Methoxy-2-methoxymethyl-5-{4-[3-((R)-2-methyl-pyrrolidin-1-yl)-propoxy]-phenyl}-2H-pyridazin-3-one]	–	0.1 to 100 nM	0.1 to 100 nM
COCn1ncc(OC)c(-c2ccc(OCCCN3CCC[C@H]3C)cc2)c1=O [Example 236, 5-Methoxy-2-methoxymethyl-4-{4-[3-((R)-2-methyl-pyrrolidin-1-yl)-propoxy]-phenyl}-2H-pyridazin-3-one]	–	0.1 to 100 nM	0.1 to 100 nM
COc1cn[nH]c(=O)c1-c1ccc(OCCCN2CCC[C@H]2C)cc1 [Example 237, 5-Methoxy-4-{4-[3-((R)-2-methyl-pyrrolidin-1-yl)-propoxy]-phenyl}-2H-pyridazin-3-one]	–	0.1 to 100 nM	0.1 to 100 nM
O=c1ccc(-c2ccc(OCCCN3CCOCC3)cc2)n[nH]1 [Example 238, 6-[4-(3-Morpholin-4-yl-propoxy)-phenyl]-2H-pyridazin-3-one]	–	> 1000 nM	> 1000 nM
C[C@H]1CCCN1CCCOc1ccc(-c2ccc(=O)[nH]n2)cc1 [Example 239, 6-{4-[3-((S)-2-Methyl-pyrrolidin-1-yl)-propoxy]-phenyl}-2H-pyridazin-3-one]	–	0.1 to 100 nM	0.1 to 100 nM
CCN1N=C(c2ccc(OC3CCN(C4CCC4)CC3)cc2)C2CC2C1=O (stereo not drawn) [Example 250, 5-[4-(1-Cyclobutyl-piperidin-4-yloxy)-phenyl]-3-ethyl-3,4-diaza-bicyclo[4.1.0]hept-4-en-2-one]	–	0.1 to 100 nM	0.1 to 100 nM
CC(C)N1N=C(c2ccc(OC3CCN(C4CCC4)CC3)cc2)C2CC2C1=O (stereo not drawn) [Example 251, 5-[4-(1-Cyclobutyl-piperidin-4-yloxy)-phenyl]-3-isopropyl-3,4-diaza-bicyclo[4.1.0]hept-4-en-2-one]	–	0.1 to 100 nM	0.1 to 100 nM
CN1N=C(c2ccc(OC3CCN(C4CCC4)CC3)cc2)C2CC2C1=O (stereo not drawn) [Example 252, 5-[4-(1-Cyclobutyl-piperidin-4-yloxy)-phenyl]-3-methyl-3,4-diaza-bicyclo[4.1.0]hept-4-en-2-one]	–	0.1 to 100 nM	0.1 to 100 nM
O=C1C2CC2C(c2ccc(OC3CCN(C4CCC4)CC3)cc2)=NN1c1ccc(F)cc1 (stereo not drawn) [Example 253, 5-[4-(1-Cyclobutyl-piperidin-4-yloxy)-phenyl]-3-(4-fluoro-phenyl)-3,4-diaza-bicyclo[4.1.0]hept-4-en-2-one]	–	0.1 to 100 nM	0.1 to 100 nM
O=C1C2CC2C(c2ccc(OC3CCN(C4CCC4)CC3)cc2)=NN1CC(F)(F)F (stereo not drawn) [Example 254, 5-[4-(1-Cyclobutyl-piperidin-4-yloxy)-phenyl]-3-(2,2,2-trifluoro-ethyl)-3,4-diaza-bicyclo[4.1.0]hept-4-en-2-one]	–	0.1 to 100 nM	0.1 to 100 nM
CN1N=C(c2ccc(OC3CCN(C4CCCC4)CC3)cc2)C2CC2C1=O (stereo not drawn) [Example 260, 5-[4-(1-Cyclopentyl-piperidin-4-yloxy)-phenyl]-3-methyl-3,4-diaza-bicyclo[4.1.0]hept-4-en-2-one]	–	0.1 to 100 nM	0.1 to 100 nM
O=C1NN=C(c2ccc(OC3CCN(C4CCCC4)CC3)cc2)C2CC12 (stereo not drawn) [Example 261, 5-[4-(1-Cyclopentyl-piperidin-4-yloxy)-phenyl]-3,4-diaza-bicyclo[4.1.0]hept-4-en-2-one]	–	0.1 to 100 nM	0.1 to 100 nM
C[C@@H]1CCCN1CCCOc1ccc(-n2nc(C3CC3)ccc2=O)cc1 [Example 262, 6-Cyclopropyl-2-{4-[3-((R)-2-methyl-pyrrolidin-1-yl)-propoxy]-phenyl}-2H-pyridazin-3-one]	–	0.1 to 100 nM	101 to 500 nM
